From ChEMBL document CHEMBL1201862, “PubChem BioAssay data set” (2004)
Activity calls are given as the source filed them.

Experiments:
[1] = Luminescence Cell-Based Dose Response HTS to Identify Inhibitors of 5'UTR Stem-Loop Driven Prion Protein mRNA Translation in H4 Neuroglioblastoma Cells. [Related pubchem assays: 1827 (Project Summary), 1813 (Primary HTS)]; assay type: functional
[2] = inhibitors of firefly luciferase expression or activity, dose response, H4 neuroglioma cells, luminescence (AID 1990); assay type: functional, cell-based
[3] = inhibitors of SNCA 5'UTR-driven reporter translation, confirmation, H4 neuroglioma cells, luminescence (AID 1988); assay type: functional, cell-based
[4] = cytotoxicity toward NIH3T3 fibroblasts, dose response, counter-screen, cell-based, ATP luminescence, mouse fibroblasts (AID 2010); assay type: functional;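 further: cells exposed to compound for about 90 hours before reading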
[5] = Luminescence Cell-Based Dose Retest to Confirm Inhibitors of Cancer Stem Cells. [Related pubchem assays (depositor defined):AID2717, AID2721]; assay type: functional; details: Homo sapiens
[6] = inhibitors of intracellular T. cruzi replication, confirmation, NIH3T3 host cells, beta-gal luminescence (AID 2044); assay type: functional, cell-based;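 further: intracellular parasites grown in NIH/3T3 mouse fibroblasts as host cells; luminescent beta-galactosidase reporter signal from transgenic T. cruzi replicating inside host cells; inhibitors lower the luminescence signal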
[7] = target: Large T antigen (Simian virus 40, UniProt P03070); assay type: functional, Betapolyomavirus macacae;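 further: Confirmatory-stage PubChem screen for compounds that inhibit SV40 T antigen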
[8] = target: T1, Heat shock factor protein 1 (Mus musculus, UniProt P38532); test: HSF1 potentiators in luciferase reporter cells, confirmation, cell-based, NIH3T3, luminescence, dose retest (AID 435004); assay type: functional;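 further: stress induced by proteasome inhibitor MG132 added 30 min after compound; luciferase reporter driven by HSF1 response element in NIH3T3 cells; actives raise luminescence as potentiators of the MG132 stress response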
T1 sequence (P38532 whole entry): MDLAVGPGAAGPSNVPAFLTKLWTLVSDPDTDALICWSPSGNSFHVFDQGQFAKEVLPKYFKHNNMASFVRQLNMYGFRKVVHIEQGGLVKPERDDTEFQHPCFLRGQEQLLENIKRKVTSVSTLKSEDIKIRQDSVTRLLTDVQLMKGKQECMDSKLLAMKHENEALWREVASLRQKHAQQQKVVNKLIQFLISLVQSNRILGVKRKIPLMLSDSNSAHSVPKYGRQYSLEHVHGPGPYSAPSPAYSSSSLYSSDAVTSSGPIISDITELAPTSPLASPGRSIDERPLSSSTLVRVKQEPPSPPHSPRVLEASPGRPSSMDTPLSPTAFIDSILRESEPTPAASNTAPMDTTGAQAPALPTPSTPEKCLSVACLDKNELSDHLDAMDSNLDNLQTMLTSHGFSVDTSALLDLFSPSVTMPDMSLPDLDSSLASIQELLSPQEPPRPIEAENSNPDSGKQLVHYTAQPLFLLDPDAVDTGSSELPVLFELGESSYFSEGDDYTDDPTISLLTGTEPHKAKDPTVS

[9] = microbe, parasite or virus in culture; assay type: functional; details: Mycobacterium tuberculosis
[10] = target: Paired box protein Pax-8 (Homo sapiens, UniProt Q06710); test: inhibitors of PAX8-driven TPO luciferase reporter, dose response, RMG-I cells, cherry-pick (AID 687027); assay type: functional, cell-based;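 further: luciferase reporter driven by Pax8 target thyroperoxidase promoter measured by SteadyGlo luminescence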
[11] = HEp-2 cell cytotoxicity, dose response, cytotoxicity control for RSV inhibitor project, HTS (AID 2410); assay type: functional; details: human respiratory syncytial virus
[12] = test system: INS1; test: beta cell apoptosis inhibitors, cytokine rescue, dose response, luminescence, retest (AID 449756); assay type: functional, cell-based; details: Rattus norvegicus;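 further: cell death triggered by IL-1 beta plus TNF-alpha plus IFN-gamma mixture; protective hits raise ATP signal compared with cytokine alone wells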
[13] = target: T2, Replicative DNA helicase DnaB (Mycobacterium tuberculosis, UniProt P9WMR3); test: DnaB intein splicing inhibitors, dose response, biochemical, cell-free fluorescence (AID 449749); assay type: functional
T2 sequence (P9WMR3 whole entry): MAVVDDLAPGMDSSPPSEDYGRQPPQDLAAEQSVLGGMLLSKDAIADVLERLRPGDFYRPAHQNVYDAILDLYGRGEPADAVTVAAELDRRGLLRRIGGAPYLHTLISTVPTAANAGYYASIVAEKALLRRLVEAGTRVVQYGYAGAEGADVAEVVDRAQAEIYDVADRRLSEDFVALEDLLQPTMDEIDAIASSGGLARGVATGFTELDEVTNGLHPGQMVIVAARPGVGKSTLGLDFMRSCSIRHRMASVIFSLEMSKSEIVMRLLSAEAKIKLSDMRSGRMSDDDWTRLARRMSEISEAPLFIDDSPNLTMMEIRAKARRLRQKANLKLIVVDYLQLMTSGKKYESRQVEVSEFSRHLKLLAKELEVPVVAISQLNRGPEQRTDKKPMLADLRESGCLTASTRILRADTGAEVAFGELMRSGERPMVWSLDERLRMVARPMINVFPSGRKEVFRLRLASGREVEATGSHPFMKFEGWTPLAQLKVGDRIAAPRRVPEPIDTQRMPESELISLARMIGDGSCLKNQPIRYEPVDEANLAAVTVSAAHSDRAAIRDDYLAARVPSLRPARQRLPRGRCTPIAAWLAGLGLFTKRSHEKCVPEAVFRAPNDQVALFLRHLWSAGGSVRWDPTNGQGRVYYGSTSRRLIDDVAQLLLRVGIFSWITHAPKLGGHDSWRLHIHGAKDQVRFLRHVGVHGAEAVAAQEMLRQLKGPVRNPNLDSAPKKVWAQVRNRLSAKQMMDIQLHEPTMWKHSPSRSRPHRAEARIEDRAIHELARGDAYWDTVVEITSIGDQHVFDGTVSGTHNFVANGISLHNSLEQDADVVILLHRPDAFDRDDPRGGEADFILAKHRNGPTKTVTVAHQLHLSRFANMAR

[14] = target: T3, Protein RecA (Mycobacterium tuberculosis, UniProt P9WHJ3); test: Fluorescence Cell-Free Homogeneous Dose Retest to Identify Inhibitors of RecA-Intein Splicing Activity. [Related pubchem assays (depositor defined):AID2097, AID2223, AID489010, AID492950]; assay type: functional
T3 sequence (P9WHJ3 whole entry): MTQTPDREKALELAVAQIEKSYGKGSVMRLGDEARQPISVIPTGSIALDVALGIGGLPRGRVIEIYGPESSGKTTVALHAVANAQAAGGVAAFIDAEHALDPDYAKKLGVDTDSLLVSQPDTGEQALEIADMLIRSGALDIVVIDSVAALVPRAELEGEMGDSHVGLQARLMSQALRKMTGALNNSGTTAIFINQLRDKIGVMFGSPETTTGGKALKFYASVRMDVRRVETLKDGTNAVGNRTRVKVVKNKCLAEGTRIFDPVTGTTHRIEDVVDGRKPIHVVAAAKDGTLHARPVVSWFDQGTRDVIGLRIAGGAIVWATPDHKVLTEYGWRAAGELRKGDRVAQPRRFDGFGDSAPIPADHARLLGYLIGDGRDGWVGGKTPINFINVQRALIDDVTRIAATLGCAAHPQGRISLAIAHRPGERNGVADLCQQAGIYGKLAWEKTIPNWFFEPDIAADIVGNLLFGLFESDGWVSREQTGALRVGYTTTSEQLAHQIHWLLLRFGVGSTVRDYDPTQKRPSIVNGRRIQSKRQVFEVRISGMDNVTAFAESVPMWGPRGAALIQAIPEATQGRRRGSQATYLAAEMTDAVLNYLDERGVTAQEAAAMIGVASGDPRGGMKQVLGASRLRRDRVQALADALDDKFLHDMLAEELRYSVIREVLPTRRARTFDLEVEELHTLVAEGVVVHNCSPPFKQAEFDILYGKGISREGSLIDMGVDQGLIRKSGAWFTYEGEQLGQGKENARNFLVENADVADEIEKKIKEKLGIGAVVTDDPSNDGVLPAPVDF

Sequence of Paired box protein Pax-8 (Q06710 whole entry): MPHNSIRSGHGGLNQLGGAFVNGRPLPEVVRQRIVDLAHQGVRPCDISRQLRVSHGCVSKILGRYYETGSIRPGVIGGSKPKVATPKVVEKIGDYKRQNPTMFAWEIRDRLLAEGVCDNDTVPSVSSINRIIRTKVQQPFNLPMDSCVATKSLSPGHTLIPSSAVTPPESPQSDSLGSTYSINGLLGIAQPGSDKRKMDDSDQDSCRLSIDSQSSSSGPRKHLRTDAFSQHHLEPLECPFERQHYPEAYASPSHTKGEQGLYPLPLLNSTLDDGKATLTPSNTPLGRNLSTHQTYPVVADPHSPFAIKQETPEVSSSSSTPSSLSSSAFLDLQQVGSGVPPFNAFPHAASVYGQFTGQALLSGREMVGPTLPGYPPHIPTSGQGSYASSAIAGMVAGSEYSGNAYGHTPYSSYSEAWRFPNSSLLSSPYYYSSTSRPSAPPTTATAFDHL
Sequence of Large T antigen (P03070 whole entry): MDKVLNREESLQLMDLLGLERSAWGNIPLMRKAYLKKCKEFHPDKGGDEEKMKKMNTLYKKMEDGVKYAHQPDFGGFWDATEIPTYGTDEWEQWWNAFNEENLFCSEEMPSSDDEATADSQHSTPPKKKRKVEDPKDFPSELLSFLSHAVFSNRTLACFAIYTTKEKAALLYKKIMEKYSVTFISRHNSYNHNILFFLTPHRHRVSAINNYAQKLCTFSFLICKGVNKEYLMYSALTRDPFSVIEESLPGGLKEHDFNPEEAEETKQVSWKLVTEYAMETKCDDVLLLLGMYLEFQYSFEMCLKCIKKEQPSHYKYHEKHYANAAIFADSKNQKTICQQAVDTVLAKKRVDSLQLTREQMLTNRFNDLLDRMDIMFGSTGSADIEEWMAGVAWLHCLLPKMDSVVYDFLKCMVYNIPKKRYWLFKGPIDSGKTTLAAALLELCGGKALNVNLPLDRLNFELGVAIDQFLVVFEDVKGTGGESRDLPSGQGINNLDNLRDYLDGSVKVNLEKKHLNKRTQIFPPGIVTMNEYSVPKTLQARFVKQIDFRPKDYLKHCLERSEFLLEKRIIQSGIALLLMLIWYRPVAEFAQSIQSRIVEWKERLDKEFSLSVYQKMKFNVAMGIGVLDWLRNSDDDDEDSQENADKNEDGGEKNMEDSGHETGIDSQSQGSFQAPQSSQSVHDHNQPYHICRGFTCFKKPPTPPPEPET

SMILES	EC50 [1]	EC50 [2]	EC50 [3]	EC50 [8]	also measured
CCCCCn1c(Sc2ccccc2)nc2c1c(=O)[nH]c(=O)n2C	20.1 µM (active)	5.33 µM (active)	16.9 µM (active)		
Cc1cc2oc(=O)c(CC(=O)NCCCN(C)C)c(C)c2c2occ(C(C)(C)C)c12	12.6 µM (active)	> 120 µM (not active)	8.72 µM (active)		EC50 [4]: 4.86 µM (active); AC50 [5]: 1.22 µM (active); EC50 [6]: 2.29 µM (active)
O=C(CN1C(=O)/C(=C\c2ccco2)SC1=S)Nc1ccc(O)cc1C(=O)O					IC50 [7]: 74.2 µM (active)
COCCCNC(=O)CCn1c(=O)c2ccccc2n(CC(=O)Nc2cc(Cl)ccc2C)c1=O				> 260 µM (inactive)	
Fc1cc(F)cc(Nc2nc(Cl)nc(NC3CCCC3)n2)c1					CC50 [9]: > 40 µM (active)
FC(F)(F)c1cccc(OCc2nnc3n2CCC3)c1	> 120 µM (not active)	> 120 µM (not active)	> 120 µM (not active)		
Cc1cc(Oc2ccc(=O)n(C)n2)nc(SCc2ccccc2)n1	16.6 µM (active)	> 120 µM (not active)	22.1 µM (active)		
COP(=O)(OC)c1nc(-c2cccc3ccccc23)oc1NCc1ccccc1				> 260 µM (inactive)	
COC(=O)C1C/C(=N\NS(=O)(=O)c2ccc(C)cc2)c2sccc2C1 (centres undefined)	> 120 µM (not active)	> 120 µM (not active)	> 120 µM (not active)		
Cc1cc(Cl)ccc1OCC(=O)Nc1ccccc1N1CCOCC1	> 120 µM (not active)	18.2 µM (active)	> 120 µM (not active)		
Cc1sc2nc(CSc3cccc(C(F)(F)F)c3)nc(O)c2c1C				> 260 µM (inactive)	
CC1(c2ccccc2)CC(C)(C)n2c(O)c(C3=NC(=S)NC3=O)c3cccc1c32 (centres undefined)	17.6 µM (active)	20.5 µM (active)	22.8 µM (active)		
C[C@@H]1CCCCO[C@H](CN(C)C)[C@H](C)CN([C@H](C)CO)C(=O)c2cc(NC(=O)Nc3cccc4ccccc34)ccc2O1					AC50 [10]: 33.5 µM (active)
Oc1cc(CCl)nc(Cc2c(Cl)cccc2Cl)n1					CC50 [9]: 21.7 µM (active)
COc1ccc(-n2c(=O)c3c4c(sc3n3c(S)nnc23)COC(C(C)C)C4)cc1 (centres undefined)					IC50 [7]: 16.7 µM (active)
CCOc1cc(/C=N/NC(=O)Cn2nc([N+](=O)[O-])cc2C)cc(Br)c1OCc1ccccc1C				> 260 µM (inactive)	EC50 [4]: > 60 µM (not active); CC50 [11]: 8.17 µM (active); EC50 [6]: 2.32 µM (active)
CC(=O)Nc1nnc(SCC(=O)c2ccc(F)cc2)s1				67.4 µM (active)	
COc1ccc(S(=O)(=O)Nc2ccc3c(c2)CC(=O)N([C@H](C)CO)C[C@H](C)[C@@H](CN(C)Cc2ccc(-c4ccccc4)cc2)O3)cc1					AC50 [10]: 9.41 µM (active)
COc1ccccc1NC(=O)C1=C(C)N=C2CC(c3ccc(OC)c(OC)c3)CC(O)=C2C1c1coc2ccccc2c1=O (centres undefined)				34.5 µM (active)	
COCCn1c(=O)[nH]c2cc(C(=O)N3CCN(c4cccc(Cl)c4)CC3)ccc2c1=O				> 260 µM (inactive)	
O=C1N=C(Nc2ccc(O)cc2)S/C1=C/c1ccco1					IC50 [7]: 3.47 µM (active)
Cc1cc2oc3c(c(=O)c2cc1C)C(c1ccc(C(C)C)cc1)N(CCCN1CCOCC1)C3=O (centres undefined)				> 260 µM (inactive)	
CCn1c(-c2ccccc2)c(C(=O)CCl)c2ccccc21				7.71 µM (active)	AC50 [12]: 7.82 µM (active); AC50 [13]: 3.27 µM (active); EC50 [4]: 4.12 µM (active); EC50 [14]: 1.05 µM (active); EC50 [6]: 1.42 µM (active)
COc1ccc(NC(=O)c2sc(S)nc2N)cc1					IC50 [7]: 7.51 µM (active)
CC(=O)c1ccc(-c2ccccc2[C@H]2[C@H]3C=CC[C@@H](C)[C@@H]3C(=O)N2Cc2ccccc2)cc1	> 120 µM (not active)	30 µM (active)	22.4 µM (active)		
COc1ccc(-c2cn(Cc3ccc(C(=O)NCc4ccc(C)cc4)cc3)c(C(C)N)n2)cc1 (centres undefined)					CC50 [9]: > 40 µM (active)
COc1ccc(C2=Nn3c(nnc3-c3ccccn3)SC2)cc1OC	> 120 µM (not active)	20.8 µM (active)	17.2 µM (active)		
Nc1cc(C(=O)O)ccc1Nc1ccccc1					IC50 [7]: 12.5 µM (active)
C[C@H]1CCCCO[C@H](CN(C)Cc2ccc(Cl)c(Cl)c2)[C@@H](C)CN([C@@H](C)CO)C(=O)c2cc(NC(=O)Nc3ccc(F)cc3)ccc2O1					AC50 [10]: 25.9 µM (active)
Cc1c(/C=N/NC(=O)c2ccc(Br)o2)cnn1C				> 260 µM (inactive)	
